In article PMC3661511, “Impact of Glucocorticoid Receptor Density on Ligand-Independent Dimerization, Cooperative Ligand-Binding and Basal Priming of Transactivation: A Cell Culture Model” (PLoS ONE, 2013):
Read-outs that look alike come from different tables or passages of the source.

T1: GRwt (Homo sapiens, UniProt P04150)
T1 sequence (P04150 1-777): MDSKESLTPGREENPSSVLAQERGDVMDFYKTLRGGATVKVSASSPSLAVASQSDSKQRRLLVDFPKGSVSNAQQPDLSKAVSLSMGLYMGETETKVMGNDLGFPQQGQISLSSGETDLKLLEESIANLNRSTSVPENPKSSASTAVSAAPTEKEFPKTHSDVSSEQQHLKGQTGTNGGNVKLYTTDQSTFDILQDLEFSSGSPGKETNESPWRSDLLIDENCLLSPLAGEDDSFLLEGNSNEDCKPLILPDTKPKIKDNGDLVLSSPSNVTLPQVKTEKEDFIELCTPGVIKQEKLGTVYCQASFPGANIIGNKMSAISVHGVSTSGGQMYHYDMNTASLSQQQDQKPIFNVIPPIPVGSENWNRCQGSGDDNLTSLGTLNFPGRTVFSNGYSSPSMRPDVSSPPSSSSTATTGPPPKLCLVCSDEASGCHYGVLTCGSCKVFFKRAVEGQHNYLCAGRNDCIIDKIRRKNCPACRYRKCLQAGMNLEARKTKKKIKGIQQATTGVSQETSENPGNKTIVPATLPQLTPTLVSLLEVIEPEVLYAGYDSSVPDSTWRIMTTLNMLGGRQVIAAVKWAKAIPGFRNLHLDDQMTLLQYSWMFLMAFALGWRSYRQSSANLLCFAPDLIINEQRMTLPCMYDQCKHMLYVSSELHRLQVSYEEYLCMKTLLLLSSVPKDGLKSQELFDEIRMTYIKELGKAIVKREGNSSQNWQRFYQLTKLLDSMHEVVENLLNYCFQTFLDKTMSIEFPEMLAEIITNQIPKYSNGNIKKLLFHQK

T2: GRdim (Homo sapiens, UniProt P04150, A458T)
T2 sequence (P04150 1-777 A458T): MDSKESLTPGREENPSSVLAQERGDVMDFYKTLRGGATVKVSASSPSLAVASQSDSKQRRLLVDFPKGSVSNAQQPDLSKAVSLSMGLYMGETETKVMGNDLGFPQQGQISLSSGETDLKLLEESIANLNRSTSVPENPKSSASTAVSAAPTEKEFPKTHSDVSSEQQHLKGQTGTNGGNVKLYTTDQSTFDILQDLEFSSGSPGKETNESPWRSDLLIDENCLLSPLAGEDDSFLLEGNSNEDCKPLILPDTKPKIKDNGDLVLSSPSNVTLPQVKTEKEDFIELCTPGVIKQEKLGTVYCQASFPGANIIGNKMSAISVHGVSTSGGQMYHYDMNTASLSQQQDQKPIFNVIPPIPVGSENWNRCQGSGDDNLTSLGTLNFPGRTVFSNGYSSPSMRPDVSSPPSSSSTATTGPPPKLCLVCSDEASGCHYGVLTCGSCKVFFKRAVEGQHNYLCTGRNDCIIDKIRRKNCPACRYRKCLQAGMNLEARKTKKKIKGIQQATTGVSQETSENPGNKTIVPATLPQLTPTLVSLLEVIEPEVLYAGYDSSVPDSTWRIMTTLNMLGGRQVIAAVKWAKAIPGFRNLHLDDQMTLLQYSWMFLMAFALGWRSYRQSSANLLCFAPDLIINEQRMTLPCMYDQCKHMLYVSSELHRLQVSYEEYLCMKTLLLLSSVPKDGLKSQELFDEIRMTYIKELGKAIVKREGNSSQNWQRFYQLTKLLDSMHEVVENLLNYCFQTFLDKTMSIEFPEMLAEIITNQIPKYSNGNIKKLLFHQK

T3: Flag-tagged human glucocorticoid receptor alpha, wild type (pEFFlaghGRα) (human, UniProt P04150 1-777)
T3 construct: glucocorticoid receptor alpha (hGRα), human, wild type; construct pEFFlaghGRα, molecular mass 96 kDa as printed; also called Flag-GR; Flag-GRwt; source: COS-1, transiently transfected (DEAE-dextran), in lysate
T3 sequence (looked up): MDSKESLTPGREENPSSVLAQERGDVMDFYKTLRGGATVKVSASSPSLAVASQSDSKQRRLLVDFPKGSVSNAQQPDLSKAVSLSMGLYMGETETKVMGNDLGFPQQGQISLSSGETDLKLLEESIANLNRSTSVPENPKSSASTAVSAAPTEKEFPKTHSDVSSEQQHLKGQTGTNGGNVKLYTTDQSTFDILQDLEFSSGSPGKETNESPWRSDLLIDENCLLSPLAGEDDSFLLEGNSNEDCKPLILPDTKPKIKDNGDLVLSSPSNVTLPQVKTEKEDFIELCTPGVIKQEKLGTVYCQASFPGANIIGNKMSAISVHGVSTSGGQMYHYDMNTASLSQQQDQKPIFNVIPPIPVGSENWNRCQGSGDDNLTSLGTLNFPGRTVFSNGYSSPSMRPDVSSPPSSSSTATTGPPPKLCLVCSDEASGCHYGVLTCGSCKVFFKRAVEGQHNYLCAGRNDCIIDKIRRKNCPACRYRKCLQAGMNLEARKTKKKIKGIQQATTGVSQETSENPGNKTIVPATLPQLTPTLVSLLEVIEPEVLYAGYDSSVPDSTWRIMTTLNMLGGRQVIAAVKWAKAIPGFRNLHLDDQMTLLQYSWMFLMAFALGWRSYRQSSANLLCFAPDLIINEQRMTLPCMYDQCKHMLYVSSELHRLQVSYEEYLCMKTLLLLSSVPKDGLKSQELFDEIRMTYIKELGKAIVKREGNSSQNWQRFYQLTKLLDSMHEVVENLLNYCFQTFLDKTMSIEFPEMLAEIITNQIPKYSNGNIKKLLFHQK


Key:
GRwt [1] = molecular target: T1, GRwt; assay: Promoter-reporter transactivation (pTAT-GRE2-E1b-luc) in COS-1 cells, GRwt; type: cell-based; conditions: for EC50: read-out: Potency (log EC50) (converted)
Protocol: (§1) Cells were transfected with low, medium or high GRwt, low or medium GRdim and 3000 ng pTAT-GRE2-E1b-luc filled to 14550 ng total plasmid with empty vector. Cells were replated 24 h later into 96-well plates (4×10^4 cells/well) in charcoal-stripped DMEM. […] Cells were lysed with 30 µl of passive lysis buffer (Promega), and subjected to a freeze thaw cycle. Luciferase activity was determined using a luciferase assay kit (Promega). Light emission was measured in a Veritas microplate luminometer (Turner Biosystems). Luciferase relative light units were normalized against protein concentrations. Sigmoidal dose-response curves were fit to the experimental data which generated basal induction (bottom), maximal induction (top-bottom), fold-induction (top/bottom), and log EC50.

GRdim = molecular target: T2, GRdim; assay: Promoter-reporter transactivation (pTAT-GRE2-E1b-luc) in COS-1 cells, GRdim; type: cell-based
Protocol: as §1

GRwt [2] = conditions: COS-1 cells transiently transfected with high levels of GRwt; cited from earlier work
[3] = molecular target: T3, Flag-tagged human glucocorticoid …; assay: co-IP; medium or high GR levels co-transfected in COS-1 cells; cells treated 1 h with vehicle (ethanol) or 10^-6 M DEX; 200 µg lysate protein on anti-FLAG M2 affinity gel beads, 16 h at 4°C, Buffer A with 2.5% casein; immunoblot with anti-GR; GFP-GR pull-down normalized to Flag-GR; conditions: partners not purified
[4] = molecular target: T3, Flag-tagged human glucocorticoid …; assay: co-IP; low GR levels co-transfected in COS-1 cells; cells treated 1 h with vehicle (ethanol), 10^-6 M DEX or 10^-5 M CpdA; 600 µg lysate protein on anti-FLAG M2 affinity gel beads, 16 h at 4°C, Buffer A with 2.5% casein; immunoblot with anti-GR; GFP-GR pull-down normalized to Flag-GR; conditions: partners not purified

Molecule	Maximal induction (RLU/mg protein) (GRwt [1]; GRwt concentration Low)	Maximal induction (RLU/mg protein) (GRwt [1]; GRwt concentration Medium)	Maximal induction (RLU/mg protein) (GRdim; GRdim concentration Low)	Maximal induction (RLU/mg protein) (GRdim; GRdim concentration Medium)	also measured
CC(=O)O[C@]1(C(C)=O)CC[C@H]2[C@@H]3C[C@H](C)C4=CC(=O)CC[C@]4(C)[C@H]3CC[C@@]21C [MPA, medroxyprogesterone acetate]	3.5 x 10^4 ± 8.3 x 10^3 RLU/mg protein	1.5 x 10^5 ± 2.3 x 10^4 RLU/mg protein	–	–	EC50 (GRwt [1]; GRwt concentration Low, pTAT-GRE2-Elb-luc, 24h): 23.4 nM; EC50 (GRwt [1]; GRwt concentration Medium): 8.71 nM
CC#C[C@]1(O)CC[C@H]2[C@@H]3CCC4=CC(=O)CCC4=C3[C@@H](c3ccc(N(C)C)cc3)C[C@@]21C [RU486, mifepristone]	1.8 x 10^4 ± 3.7 x 10^3 RLU/mg protein	6.4 x 10^4 ± 7.5 x 10^3 RLU/mg protein	7.1 x 10^4 ± 8.7 x 10^3 RLU/mg protein	4.0 x 10^5 ± 7.8 x 10^4 RLU/mg protein	–
C[C@@H]1C[C@H]2[C@@H]3CCC4=CC(=O)C=C[C@]4(C)[C@@]3(F)[C@@H](O)C[C@]2(C)[C@@]1(O)C(=O)CO [DEX, Dexamethasone]	–	–	–	–	Kd (GRwt [2]): 12.6 nM
C[C@]12CCC(=O)C=C1CC[C@@H]1[C@@H]2[C@@H](O)C[C@@]2(C)[C@H]1CC[C@]2(O)C(=O)CO [F, cortisol]	2.8 x 10^4 ± 7.2 x 10^3 RLU/mg protein	8.8 x 10^4 ± 6 x 10^3 RLU/mg protein	3.7 x 10^4± 8.3 x 10^3 RLU/mg protein	2.2 x 10^5 ± 5.7 x 10^4 RLU/mg protein	–
GFP-tagged dimerization-deficient glucocorticoid receptor (pEGFP-C2-GRA477T, carrying the GRdim sequence from pHisGRA458T) (receptor, human, UniProt P04150 1-777, looked up, the plasmid's name says A477T, the text A458T; also called GFP-GRdim; source: COS-1, transiently transfected (DEAE-dextran), in lysate) MDSKESLTPGREENPSSVLAQERGDVMDFYKTLRGGATVKVSASSPSLAVASQSDSKQRRLLVDFPKGSVSNAQQPDLSKAVSLSMGLYMGETETKVMGNDLGFPQQGQISLSSGETDLKLLEESIANLNRSTSVPENPKSSASTAVSAAPTEKEFPKTHSDVSSEQQHLKGQTGTNGGNVKLYTTDQSTFDILQDLEFSSGSPGKETNESPWRSDLLIDENCLLSPLAGEDDSFLLEGNSNEDCKPLILPDTKPKIKDNGDLVLSSPSNVTLPQVKTEKEDFIELCTPGVIKQEKLGTVYCQASFPGANIIGNKMSAISVHGVSTSGGQMYHYDMNTASLSQQQDQKPIFNVIPPIPVGSENWNRCQGSGDDNLTSLGTLNFPGRTVFSNGYSSPSMRPDVSSPPSSSSTATTGPPPKLCLVCSDEASGCHYGVLTCGSCKVFFKRAVEGQHNYLCTGRNDCIIDKIRRKNCPACRYRKCLQAGMNLEARKTKKKIKGIQQATTGVSQETSENPGNKTIVPATLPQLTPTLVSLLEVIEPEVLYAGYDSSVPDSTWRIMTTLNMLGGRQVIAAVKWAKAIPGFRNLHLDDQMTLLQYSWMFLMAFALGWRSYRQSSANLLCFAPDLIINEQRMTLPCMYDQCKHMLYVSSELHRLQVSYEEYLCMKTLLLLSSVPKDGLKSQELFDEIRMTYIKELGKAIVKREGNSSQNWQRFYQLTKLLDSMHEVVENLLNYCFQTFLDKTMSIEFPEMLAEIITNQIPKYSNGNIKKLLFHQK	–	–	–	–	GFP-GR pull-down after ethanol, relative to DEX-induced GRwt set at 100 percent (high GR level) [3]: 36 to 66%; GFP-GR pull-down after ethanol, relative to DEX-induced GRwt set at 100 percent (low GR level) [4]: 36 to 66%
